From patent US20240008473A1, “DEVICE AND METHOD TO DISTRIBUTE AIR TREATMENT SUBSTANCE” (Discovery Purchaser Corporation, priority 2020, published 2024)

Assays:
[1] = 25° C.; cited from earlier work
[2] = TGA (thermogravimetric analysis) measurements on TFL technical; type: physicochemical
Method: TGA (Thermogravimetric analysis) measurements were performed on TFL technical (release profile measurements done at isothermal (55° C.) and at constant temperature increase ratio (3K/mn)), and from that, it was discovered that release kinetic at “usual” candle melting temp (50-70° C.) would not allow enough TFL release to get expected efficacy, and that TFL release is not linear. It was determined as well that release onset for TFL is around 100° C. and far higher release ratio occurs at higher temperatures. The calculated estimated ideal temperature for TFL, for outdoor use, from the TGA measurement would be around 150° C.
TGA (Thermal Gravimetric Analysis) for TFL was run, which allows characterization of the release profile of an active ingredient as a function of the temperature. […] Thus, TFL release was pretty low in the range of the “usual candle wax melting temperature”, and it was not be possible to get the needed release rate. (which is the reason why TFL was mainly burnt before being released when incorporated directly into a candle). At such a temperature range, it would hardly possible (considering the potential TFL loading into the candle and candle size) to reach a release above 2-3 mg/h which is far below our 20-25 mg/h needed for outdoor use. • Based on the TGA measurement, it can be seen that to reach the desired 25 mg/h release rate for TFL, the pod temp should be >130-140° C.
(before a typical flame temperature). […] This amount is much lower than the desired 25 mg/h release rate.

[3] = 15 mg flakes, temperature ramp 3K/min, continuous N2-flow

In the case of `C#CCN1CC(=O)N(COC(=O)[C@@H]2C(C=C(C)C)C2(C)C)C1=O` (mixture of isomers) [Imiprothrin], the Vapor pressure [1] is given as 1.85 mPa @25 °C.
In the case of `C#CC(OC(=O)C1C(C=C(C)C)C1(C)C)/C(C)=C/CC` (centres unmarked) [Empenthrin], the Vapor pressure [1] is given as 15.4 mPa @25 °C.
For `C/C=C/C1C(C(=O)OCc2c(F)c(F)c(COC)c(F)c2F)C1(C)C` (centres unmarked) [Metofluthrin], the Vapor pressure [1] is listed as 1.96 mPa @25 °C.
In the case of `C#CCC1=C(C)C(OC(=O)C2C(C=C(C)C)C2(C)C)CC1=O` (centres unmarked) [Prallethrin], the Vapor pressure [1] is given as 0.6 mPa @25 °C.
In the case of `CC=CC1C(C(=O)OCc2c(F)c(F)c(C)c(F)c2F)C1(C)C` (centres unmarked) [Profluthrin], the Vapor pressure [1] is listed as 10.3 mPa @25 °C.
For `CC1(C)[C@H](C=C(Cl)Cl)[C@H]1C(=O)OCc1c(F)c(F)cc(F)c1F` [TFL, Transfluthrin], the complete evaporation [2, 3] was 255 °C, the onset of evaporation [2, 3] was “around 100 °C” and the “reachable release at usual candle wax melting temperature” value ([2]; 50-80° C., TFL loaded into candle) was 2 to 3 mg/h. The “release onset for TFL” value ([2]; TGA on TFL technical, isothermal (55° C.) and 3K/mn ramp) was “around 100 °C”, the “active ingredient release below 100-110° C.” value ([2]; TGA, FIG. 9A) was “very little release” and the TFL evaporation rate ([2]; at 55° C. candle melting temperature, TGA conditions) was < 0.03 mg/h. For the same compound, the “pod temp to reach the desired 25 mg/h release rate” value ([2]; based on the TGA measurement) was 130-140 °C and the Vapor pressure [1] was 2 mPa @25 °C.
For `CC(C)=CC1C(C(=O)OCN2C(=O)C3=C(CCCC3)C2=O)C1(C)C` (centres unmarked) [Tetramethrin], the Vapor pressure [1] is given as 2.11 mPa @25 °C.
